SMILES strings stand for the structures.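 Tested at 5 concentrations; 48 h exposure; 96-well plates; endpoints linearly interpolated, else capped at highest concentration. TGI: total growth inhibition.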 Where only a bound is given, the exact number is not on record here.

The first assay concerns SF-295 CNS. Description: NCI tumour cell line growth inhibition, 48 h.
As to `Cn1c2ccccc2n2c(N=O)c(-c3ccccc3)nc12`, the TGI is more than 100 µM.

As for `COC(=O)/C=C(/C)n1nc2ccccc2n1`, the TGI was more than 100 µM.

Regarding `O=C1c2cc(Cl)ccc2-n2cnnc2C2CSCN12` (stereo not given), the TGI is more than 100 µM.

In the case of `Cc1cc2c(cc1-c1cc3c(cc1C)C(C(C)C)=C(O)C(=O)/C3=C\Nc1c3ccccc3nc3ccccc13)/C(=C/Nc1c3ccccc3nc3ccccc13)C(=O)C(O)=C2C(C)C`, the TGI is 12.9 µM.

Another assay has as its system NCI-H23 lung. Description: NCI tumour cell line growth inhibition, 48 h.
Compound `Cn1c2ccccc2n2c(N=O)c(-c3ccccc3)nc12` displayed a TGI of more than 100 µM.

With `COC(=O)/C=C(/C)n1nc2ccccc2n1`, the TGI is more than 100 µM.

Take `Cc1cc2c(cc1-c1cc3c(cc1C)C(C(C)C)=C(O)C(=O)/C3=C\Nc1c3ccccc3nc3ccccc13)/C(=C/Nc1c3ccccc3nc3ccccc13)C(=O)C(O)=C2C(C)C`: the TGI was found to be 15 µM.

The test system of another assay is PC-3 prostate. Briefly: NCI tumour cell line growth inhibition, 48 h.
Turning to `Cn1c2ccccc2n2c(N=O)c(-c3ccccc3)nc12`, the TGI was more than 100 µM.

For `COC(=O)/C=C(/C)n1nc2ccccc2n1`, the TGI is more than 100 µM.

Compound `O=C1c2cc(Cl)ccc2-n2cnnc2C2CSCN12` (stereo not given) came in with a TGI of more than 100 µM.

In the case of `Cc1cc2c(cc1-c1cc3c(cc1C)C(C(C)C)=C(O)C(=O)/C3=C\Nc1c3ccccc3nc3ccccc13)/C(=C/Nc1c3ccccc3nc3ccccc13)C(=O)C(O)=C2C(C)C`, the TGI came to 12.9 µM.

The subject of a further assay is LOX IMVI melanoma. Briefly: NCI tumour cell line growth inhibition, 48 h.
Take `Cn1c2ccccc2n2c(N=O)c(-c3ccccc3)nc12`: the TGI is more than 100 µM.

`O=C1c2cc(Cl)ccc2-n2cnnc2C2CSCN12` (stereo not given): the TGI is more than 100 µM.

The subject of a further assay is KM12 colon. Description: NCI tumour cell line growth inhibition, 48 h.
`Cn1c2ccccc2n2c(N=O)c(-c3ccccc3)nc12` returned a TGI of 69.8 µM.

As for `COC(=O)/C=C(/C)n1nc2ccccc2n1`, the TGI was more than 100 µM.

Take `O=C1c2cc(Cl)ccc2-n2cnnc2C2CSCN12` (stereo not given): the TGI is more than 100 µM.

Compound `Cc1cc2c(cc1-c1cc3c(cc1C)C(C(C)C)=C(O)C(=O)/C3=C\Nc1c3ccccc3nc3ccccc13)/C(=C/Nc1c3ccccc3nc3ccccc13)C(=O)C(O)=C2C(C)C` gave a TGI of 14.1 µM.

The test system of another assay is K-562 leukemia. Briefly: NCI tumour cell line growth inhibition, 48 h.
For `Cn1c2ccccc2n2c(N=O)c(-c3ccccc3)nc12`, the TGI was more than 100 µM.

In the case of `COC(=O)/C=C(/C)n1nc2ccccc2n1`, the TGI was more than 100 µM.

Compound `O=C1c2cc(Cl)ccc2-n2cnnc2C2CSCN12` (stereo not given) had a TGI of more than 100 µM.

The next assay has as its system SN12C renal. Briefly: NCI tumour cell line growth inhibition, 48 h.
The compound `Cn1c2ccccc2n2c(N=O)c(-c3ccccc3)nc12` displayed a TGI of more than 100 µM.

Turning to `COC(=O)/C=C(/C)n1nc2ccccc2n1`, the TGI is more than 100 µM.

The compound `O=C1c2cc(Cl)ccc2-n2cnnc2C2CSCN12` (stereo not given) gave a TGI of more than 100 µM.

Regarding `Cc1cc2c(cc1-c1cc3c(cc1C)C(C(C)C)=C(O)C(=O)/C3=C\Nc1c3ccccc3nc3ccccc13)/C(=C/Nc1c3ccccc3nc3ccccc13)C(=O)C(O)=C2C(C)C`, the TGI is 22 µM.

The next assay deals with A549 NSCLC. Briefly: NCI tumour cell line growth inhibition, 48 h.
`Cn1c2ccccc2n2c(N=O)c(-c3ccccc3)nc12` returned a TGI of 57.6 µM.

Compound `COC(=O)/C=C(/C)n1nc2ccccc2n1` returned a TGI of more than 100 µM.

Consider `O=C1c2cc(Cl)ccc2-n2cnnc2C2CSCN12` (stereo not given), for which the TGI is more than 100 µM.

Take `Cc1cc2c(cc1-c1cc3c(cc1C)C(C(C)C)=C(O)C(=O)/C3=C\Nc1c3ccccc3nc3ccccc13)/C(=C/Nc1c3ccccc3nc3ccccc13)C(=O)C(O)=C2C(C)C`: the TGI is 13.1 µM.

In another assay the test system is CCRF-CEM leukemia. Description: NCI tumour cell line growth inhibition, 48 h.
`Cn1c2ccccc2n2c(N=O)c(-c3ccccc3)nc12` came in with a TGI of more than 100 µM.

Consider `COC(=O)/C=C(/C)n1nc2ccccc2n1`, for which the TGI is more than 100 µM.

In turn, `O=C1c2cc(Cl)ccc2-n2cnnc2C2CSCN12` (stereo not given) returned a TGI of more than 100 µM.

Turning to `Cc1cc2c(cc1-c1cc3c(cc1C)C(C(C)C)=C(O)C(=O)/C3=C\Nc1c3ccccc3nc3ccccc13)/C(=C/Nc1c3ccccc3nc3ccccc13)C(=O)C(O)=C2C(C)C`, the TGI is 25.5 µM.

For the next assay, the system named is SF-268 CNS. Briefly: NCI tumour cell line growth inhibition, 48 h.
As for `Cn1c2ccccc2n2c(N=O)c(-c3ccccc3)nc12`, the TGI was more than 100 µM.

Regarding `COC(=O)/C=C(/C)n1nc2ccccc2n1`, the TGI is more than 100 µM.

Compound `O=C1c2cc(Cl)ccc2-n2cnnc2C2CSCN12` (stereo not given) registered a TGI of more than 100 µM.

`Cc1cc2c(cc1-c1cc3c(cc1C)C(C(C)C)=C(O)C(=O)/C3=C\Nc1c3ccccc3nc3ccccc13)/C(=C/Nc1c3ccccc3nc3ccccc13)C(=O)C(O)=C2C(C)C` displayed a TGI of 14.7 µM.

A further assay deals with HT29 colon. Briefly: NCI tumour cell line growth inhibition, 48 h.
With `Cn1c2ccccc2n2c(N=O)c(-c3ccccc3)nc12`, the TGI was more than 100 µM.

In turn, `COC(=O)/C=C(/C)n1nc2ccccc2n1` had a TGI of more than 100 µM.

With `O=C1c2cc(Cl)ccc2-n2cnnc2C2CSCN12` (stereo not given), the TGI is more than 100 µM.

`Cc1cc2c(cc1-c1cc3c(cc1C)C(C(C)C)=C(O)C(=O)/C3=C\Nc1c3ccccc3nc3ccccc13)/C(=C/Nc1c3ccccc3nc3ccccc13)C(=O)C(O)=C2C(C)C` had a TGI of 5.1 µM.

Another assay relates to HCC-2998 colon. Description: NCI tumour cell line growth inhibition, 48 h.
For `Cn1c2ccccc2n2c(N=O)c(-c3ccccc3)nc12`, the TGI amounted to 28.3 µM.

As to `COC(=O)/C=C(/C)n1nc2ccccc2n1`, the TGI is more than 100 µM.

For the compound `O=C1c2cc(Cl)ccc2-n2cnnc2C2CSCN12` (stereo not given), the TGI is more than 100 µM.

The subject of a further assay is NCI-H522 lung. Description: NCI tumour cell line growth inhibition, 48 h.
The compound `Cn1c2ccccc2n2c(N=O)c(-c3ccccc3)nc12` registered a TGI of more than 100 µM.

Compound `COC(=O)/C=C(/C)n1nc2ccccc2n1` registered a TGI of more than 100 µM.

`O=C1c2cc(Cl)ccc2-n2cnnc2C2CSCN12` (stereo not given): the TGI was more than 100 µM.

Compound `Cc1cc2c(cc1-c1cc3c(cc1C)C(C(C)C)=C(O)C(=O)/C3=C\Nc1c3ccccc3nc3ccccc13)/C(=C/Nc1c3ccccc3nc3ccccc13)C(=O)C(O)=C2C(C)C` yielded a TGI of 2.97 µM.

Another assay has as its system M14 melanoma. Description: NCI tumour cell line growth inhibition, 48 h.
With `Cn1c2ccccc2n2c(N=O)c(-c3ccccc3)nc12`, the TGI was 62.2 µM.

For `COC(=O)/C=C(/C)n1nc2ccccc2n1`, the TGI is more than 100 µM.

Turning to `O=C1c2cc(Cl)ccc2-n2cnnc2C2CSCN12` (stereo not given), the TGI was more than 100 µM.

For the compound `Cc1cc2c(cc1-c1cc3c(cc1C)C(C(C)C)=C(O)C(=O)/C3=C\Nc1c3ccccc3nc3ccccc13)/C(=C/Nc1c3ccccc3nc3ccccc13)C(=O)C(O)=C2C(C)C`, the TGI was determined as 12.6 µM.

Another assay deals with NCI-H226 lung. Description: NCI tumour cell line growth inhibition, 48 h.
In the case of `COC(=O)/C=C(/C)n1nc2ccccc2n1`, the TGI is more than 100 µM.

`O=C1c2cc(Cl)ccc2-n2cnnc2C2CSCN12` (stereo not given) had a TGI of more than 100 µM.

`Cc1cc2c(cc1-c1cc3c(cc1C)C(C(C)C)=C(O)C(=O)/C3=C\Nc1c3ccccc3nc3ccccc13)/C(=C/Nc1c3ccccc3nc3ccccc13)C(=O)C(O)=C2C(C)C` had a TGI of 5.53 µM.

The test system of the next assay is HOP-92 NSCLC. Briefly: NCI tumour cell line growth inhibition, 48 h.
In turn, `Cn1c2ccccc2n2c(N=O)c(-c3ccccc3)nc12` came in with a TGI of more than 100 µM.

Values taken from PubChem BioAssay (NCI).
